Assay results from patent US20130323284A1, “USE OF mTOR INHIBITORS TO TREAT BACTERIAL INFECTION” (JAZZYA INVESTMENTS, priority 2012, published 2013).

System: CYLD
Test: Immunoblot analysis of CYLD levels in Klebsiella pneumoniae infected cells
Type: cell-based
Settings: U0126 10 mM; infected for 3 h; versus vehicle control
Experimental: An immunoblot analysis of CYLD levels in Klebsiella pneumoniae infected cells for 3 h in the presence of vehicle control (Kp) or PI3K inhibitor (LY294002, […]), AKT inhibitor ([…]), ERK inhibitor (U0126, […]) is shown. Membranes were reprobed for tubulin as a loading control.

N#CC(=C(/N)Sc1ccccc1N)/C(C#N)=C(\N)Sc1ccccc1N [U0126]
Klebsiella pneumoniae induced production of CYLD in the presence of inhibitor: PI3K-AKT-ERK dependent manner
